The source of these data is US5002948A, “3-[4-[4-substituted-1-piperazinyl]-1-butyl]-1H-2,3-dihydroindoles” (H. Lundbeck A/S, priority 1988, dated 1991).

For experiment [1], the target named is T1, 5-HT1A (Rattus norvegicus, UniProt P19327).
T1 sequence (P19327 1-422): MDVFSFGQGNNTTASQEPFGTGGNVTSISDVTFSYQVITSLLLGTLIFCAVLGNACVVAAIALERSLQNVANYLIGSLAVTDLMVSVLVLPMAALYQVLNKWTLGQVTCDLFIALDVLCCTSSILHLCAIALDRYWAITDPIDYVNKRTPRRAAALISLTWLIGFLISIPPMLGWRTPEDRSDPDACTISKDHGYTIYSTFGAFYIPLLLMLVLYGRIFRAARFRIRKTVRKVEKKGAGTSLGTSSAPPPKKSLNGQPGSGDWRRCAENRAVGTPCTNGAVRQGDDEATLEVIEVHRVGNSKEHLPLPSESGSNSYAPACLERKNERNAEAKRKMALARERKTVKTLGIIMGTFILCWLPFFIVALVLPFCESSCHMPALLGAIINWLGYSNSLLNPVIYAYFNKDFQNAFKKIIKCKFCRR
As to the kind of experiment: Antagonism of the discriminative stimulus properties induced by 8-OHDPAT in rats. Type of experiment: in vivo, Male Wistar rats. Further details: from tissue; host or cells: whole living animal, male Wistar rats, s.c. dosing. The conditions noted are these: rat, sc, s.c. before 8-OHDPAT; rats trained at 0.4 mg/kg i.p.; inhibition of drug responding; read-out: ED50, 8-OH DPAT cue antagonism. The procedure:
ANTAGONISM OF THE DISCRIMINATIVE STIMULUS PROPERTIES INDUCED BY 8-OHDPAT IN RATS.
This test model is used to determine the antagonist effects of a test compound on 5-HT1A receptors in vivo. A related method is described by Tricklebank, M. D., J. Neill, E. J. Kidd and J. R. Fozard, Eur. J. Pharmacol. 133, 47-56, 1987; Arnt. J., Pharmacology & Toxicology 64, 165-172, 1989.
Male Wistar rats are trained to discriminate between 8-OHDPAT (0.4 mg/kg, i.p., 15 min. pretreatment) and physiological saline in operant chambers equipped with two response levers. Between the levers a dipper is placed, where water rewards (0.1 ml) are presented. The rats are water deprived for at least 24 h and work in a fixed ratio (FR) schedule (final FR=32).
Following 8-OHDPAT administration responding is reinforced only on a designated (drug) lever, whereas responding on the opposite lever has no consequences. Following saline administration responding is reinforced on the lever opposite to the drug lever. Drug and saline trials alternate randomly between training days, although the same treatment is given maximally at 3 consecutive days. The level of discrimination occuracy is expressed as the per cent drug responses and is calculated as the number of correct responses×100 divided by the sum of the correct and incorrect responses before the first reward. When stable occuracy (mean correct responding=90 per cent; individual rats at least 75 per cent correct responding) is obtained test sessions are included between training days. Test compound is injected s.c. at appropriate time before 8-OHDPAT and the test begins 15 min after 8-OHDPAT injection. The test trial is terminated when a total of 32 responses are made on either lever or when 20 min have elapsed. No reward is given and the rats have free access to water for 20-30 min after the test. The effects are expressed as per cent inhibition of drug responding. Only results from rats making at least 10 responses on one lever are included in data analysis. Furthermore, only test sessions in which at least half of the rats respond are included.
The per cent inhibition of drug response obtained for each dose of test compound is used to calculate ED50 values by log-probit analysis.

In experiment [2] the target is T1, 5-HT1A. In words: Generalization to discriminative stimulus properties induced by 8-OHDPAT in rats (agonism). Further details: from tissue; host or cells: whole living animal, male Wistar rats, s.c. dosing. The conditions noted are these: rat, sc, usually 30 or 45 min before test; substituted for 8-OHDPAT; per cent drug response; read-out: ED50, 8-OH DPAT cue agonism. Type of experiment: in vivo, Male Wistar rats. An excerpt:
GENERALIZATION TO DISCRIMINATIVE STIMULUS PROPERTIES INDUCED BY 8-OHDPAT IN RATS.
This test model is used to determine the agonist effects of a test compound on 5-HT1A receptors in vivo. A related method is described by Tricklebank, M. D., J. Neill, E. J. Kidd and J. R. Fozard, Eur. J. Pharmacol. 133, 37-56, 1987; Arnt, J., Pharmacology & Toxicology 64, 165-172, 1989.
The procedure is the same as for the antagonism test mentioned above, except that the test compound is substituted for 8-OHDPAT and injected s.c. usually 30 minutes or 45 minutes respectively before beginning of the test.
The per cent drug response obtained for each dose of test compound is used to calculate ED50 values by log-probit analysis.

Experiment [3] concerns the target T1, 5-HT1A. As to the kind of experiment: Inhibition of 5-methoxy-N,N-dimethyltryptamine (5-MeODMT) induced 5-HT syndrome in rats. Type of experiment: in vivo, Male Wistar rats. Further details: Male Wistar rats (Mol:Wist) weighing 170-240 g are used; from tissue; host or cells: whole living animal, male Wistar rats (Mol:Wist), s.c. dosing. Particulars: rat, sc. The text has this: INHIBITION OF 5-METHOXY-N,N-[…] INDUCED 5-HT SYNDROME IN RATS
The so-called 5-HT syndrome is a characteristic behaviour pattern which is induced by 5-HT agonists with effects on 5-HT, possibly 5-HT1A receptors, although lack of specific antagonists make it difficult to evaluate specificity (Smith, L. M. and S. J. Peroutka, Pharmacol. Biochem. & Behaviour 24, 1513-1519, 1986; Tricklebank, M. et al., Eur. J. Pharmacol. 117, 15-24, 1985).
Male Wistar rats (Mol:Wist) weighing 170-240 g are used. Test substrate is injected subcutaneously 30 min. before 5-methoxy-N,N-dimethyltryptamine 5 mg/kg, s.c. Four rats are used for each dose. A control group pretreated with saline is included each test day. Ten, 15 and 20 min later the rats are observed for presence of serotonin (5-HT) syndrome: (1) forepaw treading ("piano playing"), (2) head weaving and (3) hindleg abduction. Further, flat motility is scored. Each part of the syndrome is scored as follows: marked effect (score 2), weak syndrome (score 1) and no effect (score 0). The scores of the three observation times are added. Thus the maximum obtainable score for four rats is 24. The effect of the test substance is expressed as per cent inhibition relative to the control group.
The per cent inhibition of the piano playing syndrome is used as the response, and ED50 values are calculated by log-prohibit analysis.

In experiment [4] the target is T2, serotonin 5-HT1A receptors (Rattus norvegicus, UniProt P19327).
T2 construct: membranes from rat brain minus cerebellum; from tissue; host or cells: brain minus cerebellum of male Wistar (Mol:Wist) rats, membranes
T2 sequence (P19327 1-422): T1 sequence (P19327 1-422)
In words: Inhibition of 3H-8-OHDPAT binding to serotonin 5-HT1A receptors in rat brain in vitro. The conditions noted are these: 3H-8-OHDPAT 1 nM, rat brain membranes minus cerebellum, 37° C., 15 min; read-out: IC50 (3H 8-OH DPAT binding). The method, then:
INHIBITION OF ^3 H-8-OHDPAT BINDING TO SEROTONIN 5-HT1A RECEPTORS IN A RAT BRAIN IN VITRO
By this method the inhibition by drugs of the binding of ^3 H-8-OHDPAT (1 nM) to serotonin 5-HT1A receptors in membranes from rat brain minus cerebellum is determined in vitro.
Male Wistar (Mol:Wist) rats (125-250 g) are sacrificed and the brain is dissected and weighed. The brain tissue minus cerebellum is homogenized (Ultra Turrax, 20 sec) in 10 ml of ice cold 50 mM Tris buffer pH 8.0 (at 25° C.) containing 120 mM NaCl, 4 mM CaCl2 and 4 mM MgCl2. The homogenate is centrifuged at 20,000 g for 10 min at 4° C. The pellet is homogenized in 10 ml of buffer and incubated at 37° C. for 10 min. The homogenate is centrifuged as above and the pellet is homogenized in 100 vol (w/v) ice cold buffer containing 10 μ M of parglyine.
Incubation tubes kept on ice in triplicate receive 100 μl of drug solution in water (or water for total binding) and 1000 μ l of tissue suspension (final tissue content corresponds to 10 mg original tissue). The binding experiment is initiated by addition of 100 μ l of ^3 H-8-OHDPAT (final concentration 1 nM) and by placing the tubes in a 37° C. water bath. After incubation for 15 min the samples are filtered under vacuum (0-50 mBar) through Whatman GF/F filters ([…]). The tubes are rinsed with 5 ml ice cold 0.9% NaCl which are then poured on the filters. Thereafter, the filters are washed with 2×5 ml 0.9% NaCl. The filters are placed in counting vials and 4 ml of appropriate scintillation fluid (e.g. Picofluor™15) are added. After shaking for 1 h and storage 2 h in the dark the content of radioactivity is determined by liquid scintillation counting. Specific binding is obtained by subtracting the nonspecific binding in the presence of 10 μ M of 5-HT.
For determination of the inhibition of binding five concentrations of drugs covering 3 decades are used.
The IC50 -value is determined as the concentration, at which the binding is 50% of the total binding in control samples minus the nonspecific binding in the presence of 10 μM of 5-HT.
^3 H-8-OHDPAT from Amersham International plc. England. Specific activity approximately 200 Ci/mmol).

The term ED50 denotes the dose at which the effect has come halfway, by size or by number of responders. A word on the IC50: it is the point on the concentration scale where inhibition reaches its midpoint.

Take `O=C1CC2(CCCC2)CC(=O)N1CCCCN1CCN(c2ncccn2)CC1` [buspirone, reference compound]: the ED50 in experiment [1] was above 0.8 µmol/kg; in experiment [2] it was 0.62 µmol/kg; in experiment [3] it was 4.3 µmol/kg.

On to `O=C1c2ccccc2S(=O)(=O)N1CCCCN1CCN(c2ncccn2)CC1` [ipsapirone, reference compound], for which the half-inhibitory concentration (IC50) in experiment [4] was determined as 17 nM. Also, the ED50 amounted to 1.8 µmol/kg in experiment [2] and 26 µmol/kg in experiment [3].
